Holding throughout (format): functional
Assay [1] relates to Streptococcus suis. Kind of assay: Antimicrobial activity against Streptococcus suis CA isolated from cerebrospinal fluid of patient with meningitis by broth microdilution method.
In assay [2] the test system is Streptococcus suis. Kind of assay: Antimicrobial activity against Streptococcus suis UD isolated from cerebrospinal fluid of patient with meningitis by broth microdilution method. (In broth dilution the organism is exposed to a series of concentrations in liquid medium.)
Assay [3] concerns Streptococcus pyogenes. Kind of assay: Ratio of MIC for Streptococcus pyogenes 12RF transconjugant harboring ermB and tetW gene from Streptococcus suis UD to wild type Streptococcus suis UD.

In brackets after ≈: the same amount, converted by molar mass. Where only a bound is given, the exact number is not on record here.

Usually MIC stands for the smallest concentration in the dilution series that meets the test's criterion for growth inhibition.

With `CN(C)[C@@H]1C(O)=C(C(N)=O)C(=O)[C@@]2(O)C(O)=C3C(=O)c4c(O)cccc4[C@@](C)(O)[C@H]3C[C@@H]12` [TETRACYCLINE], the figures for the MIC in assay [1] and in assay [2] were 16 µg/mL (≈ 36 µM) and 8 µg/mL (≈ 18 µM), respectively.
In the case of `NC[C@H]1O[C@H](O[C@H]2[C@H](O)[C@@H](O[C@H]3O[C@H](CO)[C@@H](O)[C@H](N)[C@H]3O)[C@H](N)C[C@@H]2N)[C@H](O)[C@@H](O)[C@@H]1O` [KANAMYCIN], the Ratio in assay [3] is on record as 16.
Same read-out and setting: with `CN[C@@H]1[C@H](O[C@H]2[C@H](O[C@H]3[C@H](O)[C@@H](O)[C@H](N=C(N)N)[C@@H](O)[C@@H]3N=C(N)N)O[C@@H](C)[C@]2(O)C=O)O[C@@H](CO)[C@H](O)[C@H]1O` [STREPTOMYCIN] the figure was 8.
With `CC[C@H]1OC(=O)[C@H](C)[C@@H](O[C@H]2C[C@@](C)(OC)[C@@H](O)[C@H](C)O2)[C@H](C)[C@@H](O[C@@H]2O[C@H](C)C[C@H](N(C)C)[C@H]2O)[C@](C)(O)C[C@@H](C)C(=O)[C@H](C)[C@@H](O)[C@]1(C)O` [ERYTHROMYCIN], the figures for the MIC in assay [1] and in assay [2] were greater than 256 µg/mL and 4 µg/mL (≈ 5.45 µM), respectively.

The values above are taken from ChEMBL document CHEMBL1687842, “Different genetic elements carrying the tet(W) gene in two human clinical isolates of Streptococcus suis” (2011).
